Columns and labels:
[1] = molecular target: Dual specificity protein kinase CLK2 (Homo sapiens) (UniProt P49760); conditions: Compound concentration 1.0 uM
[2] = molecular target: Mitogen-activated protein kinase 9 (Homo sapiens) (UniProt P45984); conditions: Compound concentration 1.0 uM
[3] = molecular target: T1, Tyrosine-protein kinase receptor TYRO3 (Homo sapiens) (UniProt Q06418); conditions: Compound concentration 1.0 uM
T1 sequence (whole entry): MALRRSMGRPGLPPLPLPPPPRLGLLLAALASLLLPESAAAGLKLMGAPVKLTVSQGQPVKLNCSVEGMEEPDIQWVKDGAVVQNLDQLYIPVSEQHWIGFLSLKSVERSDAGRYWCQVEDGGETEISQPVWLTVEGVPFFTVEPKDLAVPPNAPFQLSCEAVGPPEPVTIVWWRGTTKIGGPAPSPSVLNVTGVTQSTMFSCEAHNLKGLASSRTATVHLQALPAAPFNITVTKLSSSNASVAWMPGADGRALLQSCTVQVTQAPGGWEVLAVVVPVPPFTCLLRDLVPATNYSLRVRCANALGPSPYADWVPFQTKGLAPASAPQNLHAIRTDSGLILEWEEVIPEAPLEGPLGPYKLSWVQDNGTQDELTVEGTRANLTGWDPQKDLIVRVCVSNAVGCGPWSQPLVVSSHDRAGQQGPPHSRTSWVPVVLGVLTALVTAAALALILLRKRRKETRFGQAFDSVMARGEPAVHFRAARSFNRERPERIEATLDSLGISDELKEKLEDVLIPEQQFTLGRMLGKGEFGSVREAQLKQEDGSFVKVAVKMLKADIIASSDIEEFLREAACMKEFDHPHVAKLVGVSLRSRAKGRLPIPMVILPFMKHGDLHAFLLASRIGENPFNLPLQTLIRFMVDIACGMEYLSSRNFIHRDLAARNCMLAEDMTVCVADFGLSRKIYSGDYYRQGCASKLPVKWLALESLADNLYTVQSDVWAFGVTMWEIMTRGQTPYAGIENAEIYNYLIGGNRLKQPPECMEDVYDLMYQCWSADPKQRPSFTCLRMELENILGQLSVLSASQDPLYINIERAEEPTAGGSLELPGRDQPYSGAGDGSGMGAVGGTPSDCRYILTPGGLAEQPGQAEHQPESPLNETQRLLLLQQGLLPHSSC

[4] = molecular target: T2, Rhodopsin kinase GRK1 (Homo sapiens) (UniProt Q15835); conditions: Compound concentration 1.0 uM
T2 sequence (whole entry): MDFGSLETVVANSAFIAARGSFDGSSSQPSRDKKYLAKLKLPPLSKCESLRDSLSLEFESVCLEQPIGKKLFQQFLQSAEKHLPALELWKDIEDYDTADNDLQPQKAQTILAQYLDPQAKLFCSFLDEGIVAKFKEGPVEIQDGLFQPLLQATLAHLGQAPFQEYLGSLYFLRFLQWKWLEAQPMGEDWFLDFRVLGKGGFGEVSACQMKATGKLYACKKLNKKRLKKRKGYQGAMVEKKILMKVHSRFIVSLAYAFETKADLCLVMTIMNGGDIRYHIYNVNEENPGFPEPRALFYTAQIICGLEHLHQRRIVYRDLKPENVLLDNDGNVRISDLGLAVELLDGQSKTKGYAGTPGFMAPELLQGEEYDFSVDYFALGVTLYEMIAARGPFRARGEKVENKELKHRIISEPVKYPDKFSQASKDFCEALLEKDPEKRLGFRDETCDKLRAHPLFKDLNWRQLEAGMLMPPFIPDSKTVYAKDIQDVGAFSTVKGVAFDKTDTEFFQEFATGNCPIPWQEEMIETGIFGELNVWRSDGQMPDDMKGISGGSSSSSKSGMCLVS

[5] = molecular target: Serine/threonine-protein kinase 26 (Homo sapiens) (UniProt Q9P289); conditions: Compound concentration 1.0 uM
Serine/threonine-protein kinase 26 (Homo sapiens), sequence (Q9P289 2-416 limits assumed): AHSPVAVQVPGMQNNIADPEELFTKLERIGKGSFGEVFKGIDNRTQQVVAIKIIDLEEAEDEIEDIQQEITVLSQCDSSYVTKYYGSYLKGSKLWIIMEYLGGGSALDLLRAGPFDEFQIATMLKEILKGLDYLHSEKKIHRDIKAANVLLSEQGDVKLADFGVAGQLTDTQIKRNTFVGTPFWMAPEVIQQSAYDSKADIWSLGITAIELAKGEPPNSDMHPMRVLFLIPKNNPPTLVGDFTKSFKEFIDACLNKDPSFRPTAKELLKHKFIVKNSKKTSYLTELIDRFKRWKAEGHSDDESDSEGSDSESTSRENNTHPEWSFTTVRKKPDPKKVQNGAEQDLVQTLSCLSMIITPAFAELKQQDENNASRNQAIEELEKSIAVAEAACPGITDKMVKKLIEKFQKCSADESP

[6] = molecular target: T3, Testis-specific serine/threonine-protein kinase 1 (Homo sapiens) (UniProt Q9BXA7); conditions: Compound concentration 1.0 uM
T3 sequence (whole entry): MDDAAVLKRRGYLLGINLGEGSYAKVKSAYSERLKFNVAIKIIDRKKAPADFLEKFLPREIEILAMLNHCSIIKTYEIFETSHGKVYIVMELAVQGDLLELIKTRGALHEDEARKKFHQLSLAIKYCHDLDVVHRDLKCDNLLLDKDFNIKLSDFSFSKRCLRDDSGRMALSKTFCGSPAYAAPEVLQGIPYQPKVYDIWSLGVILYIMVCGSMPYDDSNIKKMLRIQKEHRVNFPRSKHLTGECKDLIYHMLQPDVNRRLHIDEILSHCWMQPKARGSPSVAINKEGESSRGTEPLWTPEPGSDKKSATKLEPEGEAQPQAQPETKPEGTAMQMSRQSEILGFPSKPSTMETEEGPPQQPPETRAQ

[7] = molecular target: T4, Testis-specific serine/threonine-protein kinase 3 (Homo sapiens) (UniProt Q96PN8); conditions: Compound concentration 1.0 uM
T4 sequence (whole entry): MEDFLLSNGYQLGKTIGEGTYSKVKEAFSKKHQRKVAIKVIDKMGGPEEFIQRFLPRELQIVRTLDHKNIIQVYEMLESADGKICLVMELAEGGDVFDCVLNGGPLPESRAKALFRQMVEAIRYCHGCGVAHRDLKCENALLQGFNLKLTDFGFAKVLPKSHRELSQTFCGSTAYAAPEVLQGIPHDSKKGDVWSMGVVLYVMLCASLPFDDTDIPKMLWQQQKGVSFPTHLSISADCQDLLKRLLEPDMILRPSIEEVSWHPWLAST

[8] = molecular target: T5, Aurora kinase A (Homo sapiens) (UniProt O14965); conditions: Compound concentration 1.0 uM
T5 sequence (whole entry): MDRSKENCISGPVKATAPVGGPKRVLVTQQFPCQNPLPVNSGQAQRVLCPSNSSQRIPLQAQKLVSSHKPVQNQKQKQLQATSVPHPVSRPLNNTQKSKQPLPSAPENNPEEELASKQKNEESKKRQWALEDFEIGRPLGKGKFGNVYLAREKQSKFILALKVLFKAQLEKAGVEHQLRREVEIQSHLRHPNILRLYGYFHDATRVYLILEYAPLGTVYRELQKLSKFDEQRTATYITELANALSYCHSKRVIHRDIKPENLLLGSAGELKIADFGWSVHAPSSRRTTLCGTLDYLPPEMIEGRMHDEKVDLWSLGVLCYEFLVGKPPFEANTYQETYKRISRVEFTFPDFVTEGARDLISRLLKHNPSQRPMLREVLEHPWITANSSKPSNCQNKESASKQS

[9] = molecular target: 5-hydroxytryptamine receptor 2C (Homo sapiens) (UniProt P28335); conditions: Compound concentration 10.0 uM
5-hydroxytryptamine receptor 2C (Homo sapiens), sequence (P28335 whole entry): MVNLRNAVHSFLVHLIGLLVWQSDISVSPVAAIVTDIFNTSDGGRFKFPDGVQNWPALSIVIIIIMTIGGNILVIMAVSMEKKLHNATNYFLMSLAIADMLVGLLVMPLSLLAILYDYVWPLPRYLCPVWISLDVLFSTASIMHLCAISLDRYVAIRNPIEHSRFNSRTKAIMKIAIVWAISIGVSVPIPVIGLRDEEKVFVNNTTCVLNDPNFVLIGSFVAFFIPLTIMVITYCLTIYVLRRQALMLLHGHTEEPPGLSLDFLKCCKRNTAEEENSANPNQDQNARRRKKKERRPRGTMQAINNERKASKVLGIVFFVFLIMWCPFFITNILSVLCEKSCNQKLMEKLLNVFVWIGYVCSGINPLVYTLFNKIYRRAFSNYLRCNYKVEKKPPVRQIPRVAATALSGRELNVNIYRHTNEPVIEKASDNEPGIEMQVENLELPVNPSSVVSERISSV

[10] = molecular target: Mitogen-activated protein kinase kinase kinase kinase 1 (Homo sapiens) (UniProt Q92918); conditions: Compound concentration 1.0 uM
Mitogen-activated protein kinase kinase kinase kinase 1 (Homo sapiens), sequence (Q92918 whole entry, looked up): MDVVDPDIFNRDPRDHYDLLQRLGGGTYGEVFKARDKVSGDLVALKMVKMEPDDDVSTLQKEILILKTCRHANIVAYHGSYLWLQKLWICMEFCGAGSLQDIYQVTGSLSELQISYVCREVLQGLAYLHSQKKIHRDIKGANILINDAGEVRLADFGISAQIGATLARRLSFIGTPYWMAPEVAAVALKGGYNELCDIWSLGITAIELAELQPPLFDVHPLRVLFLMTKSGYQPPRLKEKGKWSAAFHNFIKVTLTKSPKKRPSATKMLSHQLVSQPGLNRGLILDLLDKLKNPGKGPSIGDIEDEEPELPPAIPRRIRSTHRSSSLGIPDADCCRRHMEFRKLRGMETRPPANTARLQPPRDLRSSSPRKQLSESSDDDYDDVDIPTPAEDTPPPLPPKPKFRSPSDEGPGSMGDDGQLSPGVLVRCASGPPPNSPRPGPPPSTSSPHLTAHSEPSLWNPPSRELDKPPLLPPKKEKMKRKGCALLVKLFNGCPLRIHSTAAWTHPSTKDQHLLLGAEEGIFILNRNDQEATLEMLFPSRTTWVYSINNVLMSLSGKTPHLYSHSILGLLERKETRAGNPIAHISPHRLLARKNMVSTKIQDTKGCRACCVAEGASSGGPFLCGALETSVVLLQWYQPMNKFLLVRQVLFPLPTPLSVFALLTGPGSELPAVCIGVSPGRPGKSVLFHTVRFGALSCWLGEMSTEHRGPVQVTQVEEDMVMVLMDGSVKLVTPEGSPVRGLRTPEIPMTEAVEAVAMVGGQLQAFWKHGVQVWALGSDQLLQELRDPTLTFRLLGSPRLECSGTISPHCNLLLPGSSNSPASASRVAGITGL

[11] = molecular target: Alpha-1D adrenergic receptor (Homo sapiens) (UniProt P25100); conditions: Compound concentration 10.0 uM
Alpha-1D adrenergic receptor (Homo sapiens), sequence (P25100 whole entry): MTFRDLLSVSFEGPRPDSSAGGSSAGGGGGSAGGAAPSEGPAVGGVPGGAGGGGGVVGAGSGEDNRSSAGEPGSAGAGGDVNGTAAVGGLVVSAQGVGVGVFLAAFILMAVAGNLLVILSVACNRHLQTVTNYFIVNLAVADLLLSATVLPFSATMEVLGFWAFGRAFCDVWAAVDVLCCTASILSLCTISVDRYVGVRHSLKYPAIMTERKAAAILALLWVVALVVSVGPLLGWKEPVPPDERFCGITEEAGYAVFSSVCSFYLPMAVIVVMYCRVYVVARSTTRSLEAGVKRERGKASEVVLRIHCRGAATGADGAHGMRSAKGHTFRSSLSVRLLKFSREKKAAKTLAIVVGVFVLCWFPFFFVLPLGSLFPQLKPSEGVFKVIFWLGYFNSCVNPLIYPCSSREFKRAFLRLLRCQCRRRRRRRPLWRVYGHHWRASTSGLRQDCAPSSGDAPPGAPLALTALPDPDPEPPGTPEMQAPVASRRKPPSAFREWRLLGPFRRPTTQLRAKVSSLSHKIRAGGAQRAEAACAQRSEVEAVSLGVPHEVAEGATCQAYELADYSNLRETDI

Mitogen-activated protein kinase 9 (Homo sapiens), sequence (P45984 whole entry, looked up): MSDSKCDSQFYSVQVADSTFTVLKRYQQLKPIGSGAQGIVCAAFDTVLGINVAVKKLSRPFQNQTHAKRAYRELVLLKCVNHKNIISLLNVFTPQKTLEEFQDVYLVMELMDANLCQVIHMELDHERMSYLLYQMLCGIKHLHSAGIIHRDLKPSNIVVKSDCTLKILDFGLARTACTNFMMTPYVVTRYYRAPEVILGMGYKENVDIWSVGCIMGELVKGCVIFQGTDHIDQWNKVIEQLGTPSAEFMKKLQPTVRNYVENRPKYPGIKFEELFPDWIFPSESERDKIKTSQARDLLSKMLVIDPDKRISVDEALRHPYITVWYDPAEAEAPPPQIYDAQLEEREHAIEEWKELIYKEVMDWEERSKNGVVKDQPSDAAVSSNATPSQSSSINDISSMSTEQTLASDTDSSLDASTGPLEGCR
Dual specificity protein kinase CLK2 (Homo sapiens), sequence (P49760 whole entry, looked up): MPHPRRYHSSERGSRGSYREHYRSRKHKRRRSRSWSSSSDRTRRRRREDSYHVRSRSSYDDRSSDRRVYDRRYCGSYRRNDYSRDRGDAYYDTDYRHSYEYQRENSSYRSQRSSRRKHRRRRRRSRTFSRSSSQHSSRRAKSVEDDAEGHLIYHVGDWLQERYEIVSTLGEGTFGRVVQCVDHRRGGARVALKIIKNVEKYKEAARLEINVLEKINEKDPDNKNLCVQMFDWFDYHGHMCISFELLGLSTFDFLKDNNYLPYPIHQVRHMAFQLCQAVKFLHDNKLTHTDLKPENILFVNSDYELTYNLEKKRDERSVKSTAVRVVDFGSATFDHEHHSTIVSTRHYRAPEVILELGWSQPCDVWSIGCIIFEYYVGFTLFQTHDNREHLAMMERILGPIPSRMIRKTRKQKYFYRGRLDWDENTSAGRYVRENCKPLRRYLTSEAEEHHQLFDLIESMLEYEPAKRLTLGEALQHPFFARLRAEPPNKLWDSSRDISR

CN1CCN(c2cnc3c(C4CCN(C(=O)c5ccc(OC(F)(F)F)cc5N)CC4)ncnc3c2)CC1 [BAY-885]
inactive: % residual kinase activity [1] 109% | % residual kinase activity [2] 104% | % residual kinase activity [3] 100% | % residual kinase activity [4] 117% | % residual kinase activity [5] 103% | % residual kinase activity [6] 107% | % residual kinase activity [7] 108% | % residual kinase activity [8] 109% | inhibition [9] -4.77% | % residual kinase activity [10] 106%

Cc1nc(C2CCN(C(=O)c3ccc(OC(F)(F)F)cc3N)CC2)c2ncc(N3CCN(C)CC3)cc2n1 [BAY-693]
inactive: inhibition [11] 5.29%

From ChEMBL document CHEMBL4507268 (2021)
